Measured values published in patent publication US9149038B2, “4-amino-6-(heterocyclic)picolinates and 6-amino-2-(heterocyclic)pyrimidine-4-carboxylates and their use as herbicides” (Dow AgroSciences LLC, priority 2013, dated 2015).
Where two headings read alike, the source gives them in different places.

Test system: Direct Seeded Rice and weed species
Experiment: Postemergence herbicidal activity in direct seeded rice, visual rating after 20-22 days and probit GR20/GR50/GR80/GR90 (Table 14)
Assay type: in vivo
Details: for pest or weed control at 17.5 g/ha / pest or weed control at 35 g/ha / pest or weed control at 70 g/ha: post-emergence, 504 h, postemergence; for pest or weed control at 17.5 g/ha: 17.5 g ai/ha; for pest or weed control at 35 g/ha: 35 g ai/ha; for pest or weed control at 70 g/ha: 70 g ai/ha
Description: Herbicidal evaluations were made visually on a scale of 0 to 100 where 0 represents no activity and 100 represents complete plant death. Seeds or nutlets of the desired test plant species were planted in a soil matrix prepared by mixing a loam soil (43 percent silt, 19 percent clay, and 38 percent sand, with a pH of about 8.1 and an organic matter content of about 1.5 percent) and river sand in an 80 to 20 ratio. The soil matrix was contained in plastic pots with a surface area of 139.7 cm^2. When required to ensure good germination and healthy plants, a fungicide treatment and/or other chemical or physical treatment was applied. The plants were grown for 10-17 d in a greenhouse with an approximate 14-h photoperiod which was maintained at about 29° C. during the day and 26° C. during the night. Nutrients and water were added on a regular basis and supplemental lighting was provided with overhead metal halide 1000-Watt lamps as necessary. The plants were employed for testing when they reached the second or third true leaf stage. A weighed amount, determined by the highest rate to be tested, of each test compound was placed in 25 mL glass vials and dissolved in a volume of 97:3 v/v acetone-DMSO to obtain 12× stock solutions. […] The concentrated stock solutions were added to the spray solutions so that the final acetone and DMSO concentrations were 16.2% and 0.5%, respectively. Spray solutions were diluted to the appropriate final concentrations with the addition of 10 mL of an aqueous mixture of 1.5% (v/v) Agri-dex crop oil concentrate. The final spray solutions contained 1.25% (v/v) Agri-dex crop oil concentrate. Compound requirements are based upon a 12 mL application volume at a rate of 187 L/ha. Formulated compounds were applied to the plant material with an overhead Mandel track sprayer equipped with […] nozzles calibrated to deliver 187 L/ha over an application area of 0.503 square meters (m^2) at a spray height of 18 inches (43 cm) above average plant canopy height. Control plants were sprayed in the same manner with the solvent blank. The treated plants and control plants were placed in a greenhouse as described above and watered by sub-irrigation to prevent wash-off of the test compounds. After 20-22 days, the condition of the test plants, compared with that of the untreated plants, was determined visually and scored on a scale of 0 to 100 percent where 0 corresponds to no injury and 100 corresponds to complete kill and are presented as indicated in Table 4. By applying the well-accepted probit analysis as described by J. Berkson in Journal of the American Statistical Society, 48, 565 (1953) and by D. Finney in “Probit Analysis” Cambridge University Press (1952), herbicidal injury of a specific compound at various rates can be used to calculate GR20, GR50, GR80 and GR90 values, which are defined as growth reduction factors that correspond to the effective dose of herbicide required to provide plant growth reduction (GR) of 20 percent, 50 percent, 80 percent and 90 percent, respectively. Probit analysis was applied to data collected from multiple dose rates of individual compounds utilizing the procedures explained in the following examples. The data for some of the dose rates and analysis of all of the dose rates are captured in the following tables.

[1] = BRAPP (broadleaf signalgrass, Brachiaria platyphylla), read-out: Visual Growth Reduction (%) 21 Days After Application BRAPP
[2] = CYPDI (small-flower flatsedge, Cyperus difformis), read-out: Visual Growth Reduction (%) 21 Days After Application CYPDI
[3] = CYPES (yellow nutsedge, Cyperus esculentus), read-out: Visual Growth Reduction (%) 21 Days After Application CYPES
[4] = CYPIR (rice flatsedge, Cyperus iria), read-out: Visual Growth Reduction (%) 21 Days After Application CYPIR
[5] = DIGSA (large crabgrass, Digitaria sanguinalis), read-out: Visual Growth Reduction (%) 21 Days After Application DIGSA
[6] = ECHCG (barnyardgrass, Echinochloa crus-galli), read-out: Visual Growth Reduction (%) 21 Days After Application ECHCG
[7] = ECHCO (junglerice, Echinochloa colonum), read-out: Visual Growth Reduction (%) 21 Days After Application ECHCO
[8] = LEFCH (Chinese sprangletop, Leptochloa chinensis), read-out: Visual Growth Reduction (%) 21 Days After Application LEFCH
[9] = ORYSJ (Oryza sativa, rice crop), read-out: Visual Growth Reduction (%) 21 Days After Application ORYSJ
[10] = ORYSK (Oryza sativa, rice crop), read-out: Visual Growth Reduction (%) 21 Days After Application ORYSK
[11] = SCPJU (Japanese bulrush, Schoenoplectus juncoides Roxb.), read-out: Visual Growth Reduction (%) 21 Days After Application SCPJU
[12] = SEBEX (hemp sesbania, Sesbania exaltata), given as number, read-out: Visual Growth Reduction (%) 21 Days After Application SEBEX

SMILES: Nc1c(F)c(-c2cc3c(cc2F)OC(F)(F)O3)nc(C(=O)O)c1Cl [Compound 13]
- GR50 BRAPP (BRAPP (Brachiaria platyphylla), probit analysis, dose for 50 percent growth reduction): 3 g ai/ha
- GR80 BRAPP (BRAPP (Brachiaria platyphylla), probit analysis, dose for 80 percent growth reduction): 5 g ai/ha
- GR90 BRAPP (BRAPP (Brachiaria platyphylla), probit analysis, dose for 90 percent growth reduction): 7 g ai/ha
- GR50 CYPDI (CYPDI (Cyperus difformis), probit analysis, dose for 50 percent growth reduction): 0.04 g ai/ha
- GR80 CYPDI (CYPDI (Cyperus difformis), probit analysis, dose for 80 percent growth reduction): 1 g ai/ha
- GR90 CYPDI (CYPDI (Cyperus difformis), probit analysis, dose for 90 percent growth reduction): 2 g ai/ha
- GR50 CYPES (CYPES (Cyperus esculentus), probit analysis, dose for 50 percent growth reduction): 0.04 g ai/ha
- GR50 CYPIR (CYPIR (Cyperus iria), probit analysis, dose for 50 percent growth reduction): 0.04 g ai/ha
- GR50 DIGSA (DIGSA (Digitaria sanguinalis), probit analysis, dose for 50 percent growth reduction): 0.05 g ai/ha
- GR80 DIGSA (DIGSA (Digitaria sanguinalis), probit analysis, dose for 80 percent growth reduction): 1 g ai/ha
- GR90 DIGSA (DIGSA (Digitaria sanguinalis), probit analysis, dose for 90 percent growth reduction): 6 g ai/ha
- GR50 ECHCG (ECHCG (Echinochloa crus-galli), probit analysis, dose for 50 percent growth reduction): 0.01 g ai/ha
- GR80 ECHCG (ECHCG (Echinochloa crus-galli), probit analysis, dose for 80 percent growth reduction): 1 g ai/ha
- GR90 ECHCG (ECHCG (Echinochloa crus-galli), probit analysis, dose for 90 percent growth reduction): 10 g ai/ha
- GR50 ECHCO (ECHCO (Echinochloa colonum), probit analysis, dose for 50 percent growth reduction): 1 g ai/ha
- GR80 ECHCO (ECHCO (Echinochloa colonum), probit analysis, dose for 80 percent growth reduction): 3 g ai/ha
- GR90 ECHCO (ECHCO (Echinochloa colonum), probit analysis, dose for 90 percent growth reduction): 6 g ai/ha
- GR50 LEFCH (LEFCH (Leptochloa chinensis), probit analysis, dose for 50 percent growth reduction): 14 g ai/ha
- GR80 LEFCH (LEFCH (Leptochloa chinensis), probit analysis, dose for 80 percent growth reduction): 25 g ai/ha
- GR90 LEFCH (LEFCH (Leptochloa chinensis), probit analysis, dose for 90 percent growth reduction): 33 g ai/ha
- GR20 ORYSJ (ORYSJ (Oryza sativa, rice crop), probit analysis, dose for 20 percent growth reduction): 6 g ai/ha
- GR20 ORYSK (ORYSK (Oryza sativa, rice crop), probit analysis, dose for 20 percent growth reduction): 15 g ai/ha
- GR50 SCPJU (SCPJU (Schoenoplectus juncoides Roxb.), probit analysis, dose for 50 percent growth reduction): 0.0001 g ai/ha
- GR80 SCPJU (SCPJU (Schoenoplectus juncoides Roxb.), probit analysis, dose for 80 percent growth reduction): 0.0001 g ai/ha
- GR90 SCPJU (SCPJU (Schoenoplectus juncoides Roxb.), probit analysis, dose for 90 percent growth reduction): 0.0001 g ai/ha
- GR50 SEBEX (SEBEX (Sesbania exaltata), probit analysis, dose for 50 percent growth reduction): 11 g ai/ha
- GR80 SEBEX (SEBEX (Sesbania exaltata), probit analysis, dose for 80 percent growth reduction): 16 g ai/ha
- GR90 SEBEX (SEBEX (Sesbania exaltata), probit analysis, dose for 90 percent growth reduction): 20 g ai/ha
- pest or weed control at 17.5 g/ha [1]: 95 to 100%
- pest or weed control at 35 g/ha [1]: 95 to 100%
- pest or weed control at 70 g/ha [1]: 95 to 100%
- pest or weed control at 17.5 g/ha [2]: 95 to 100%
- pest or weed control at 35 g/ha [2]: 95 to 100%
- pest or weed control at 70 g/ha [2]: 95 to 100%
- pest or weed control at 17.5 g/ha [3]: 95 to 100%
- pest or weed control at 35 g/ha [3]: 95 to 100%
- pest or weed control at 70 g/ha [3]: 95 to 100%
- pest or weed control at 17.5 g/ha [4]: 95 to 100%
- pest or weed control at 35 g/ha [4]: 95 to 100%
- pest or weed control at 70 g/ha [4]: 95 to 100%
- pest or weed control at 17.5 g/ha [5]: 95 to 100%
- pest or weed control at 35 g/ha [5]: 95 to 100%
- pest or weed control at 70 g/ha [5]: 95 to 100%
- pest or weed control at 17.5 g/ha [6]: 95 to 100%
- pest or weed control at 35 g/ha [6]: 85 to 94%
- pest or weed control at 70 g/ha [6]: 95 to 100%
- pest or weed control at 17.5 g/ha [7]: 95 to 100%
- pest or weed control at 35 g/ha [7]: 95 to 100%
- pest or weed control at 70 g/ha [7]: 95 to 100%
- pest or weed control at 17.5 g/ha [8]: 60 to 74%
- pest or weed control at 35 g/ha [8]: 95 to 100%
- pest or weed control at 70 g/ha [8]: 95 to 100%
- pest or weed control at 17.5 g/ha [9]: 45 to 59%
- pest or weed control at 35 g/ha [9]: 85 to 94%
- pest or weed control at 70 g/ha [9]: 95 to 100%
- pest or weed control at 17.5 g/ha [10]: 0 to 29%
- pest or weed control at 35 g/ha [10]: 45 to 59%
- pest or weed control at 70 g/ha [10]: 60 to 74%
- pest or weed control at 17.5 g/ha [11]: 95 to 100%
- pest or weed control at 35 g/ha [11]: 95 to 100%
- pest or weed control at 70 g/ha [11]: 95 to 100%
- pest or weed control at 17.5 g/ha [12]: 95%
- pest or weed control at 35 g/ha [12]: 100%
- pest or weed control at 70 g/ha [12]: 100%
